Reference: US20250188492A1, “Enhanced Transfer of Genetic Instructions to Effector Immune Cells” (Janssen Biotech, Inc., priority 2022, published 2025)

Assays:
Type in all cases: cell-based
LDLR = LDLR expression of primary γδ T cells pre-treated with statin; settings: different concentrations, compared to lentiviral vector only-transduced cells, FIGS. 10A-10B
Protocol: (§1) Next, the effect of pre-treatment with statin in lentiviral transduction of primary γδ T cells on LDLR expression was evaluated. Three primary γδ T cells samples from healthy donors were expanded with Zol for five days, pre-treated in the presence or absence of Rosuvastatin and Atorvastatin at different concentrations, as described above, and evaluated for LDLR expression.

primary γδ T cells = experiment: Frequency of Vγ9Vδ2 subset of primary γδ T cells pre-treated with statin (flow cytometry); settings: different concentrations, compared to lentiviral vector only at 0 statin concentration, FIGS. 11A-11B
Protocol: as §1, with “on the frequency of Vγ9Vδ2 T cell subset within the γδ T cells” for “on LDLR expression”, “Rosuvastatin or” for “Rosuvastatin and”, “for Vγ9Vδ2 expression, using flow cytometry.” for “for LDLR expression.”

primary NK cells [1] = experiment: Surface CAR expression of primary NK cells transduced with Antigen-1 CAR lentivirus with or without PDK1 inhibitor (flow cytometry); settings: BX795 0.5 to 7.5 μM, compared to cells transduced without BX795, n=2, FIGS. 2B-2C
Protocol: NK cells were first activated in preparation of the transduction. One day 0, 0.5-1×10^6 NK cells per well were distributed in a 24-well plate.
Loaded Anti-Biotin MACSiBead particles (Miltenyi Biotech, Cat #130-094-483) for NK cell activation were resuspended thoroughly and were transferred to a suitable tube at the amount of 5 μL (5×10^5 loaded Anti-Biotin MACSiBead particles) per 1×10^6 NK cells. 100 μL culture medium was added to the loaded Anti-Biotin MACSiBead particles. The mixture was centrifuged at 300×g for 5 minutes so that the beads were washed prior to being added to the plated NK cells. […]
Lentiviral transduction was performed on day 5 or 6. […] The amount of virus needed for transducing cells was determined based on desired multiplicity of infection (MOI). […]
Cells were monitored as early as day 3-4 post transduction for surface CAR expression. The cell number of NK cells was determined. […] The CAR expression on NK cells was then measured using flow cytometry analysis.
To test whether PDK1 inhibitors can improve CAR transduction efficiency or surface CAR stability, primary NK cells were activated and transduced with a Antigen-1 CAR in the presence or absence of an PDK1 inhibitor, BX795 (InvivoGen, cat #tlrl-bx7), at concentrations varying from 0.5 to 7.5 μM. […] Surface CAR expression was monitored at regular intervals using an anti-myc tag AF647 antibody (Cell Signaling, Cat #2233, 1:200).

[2] = test system: low-density lipoprotein receptor (LDLR); experiment: LDLR expression on primary NK cells after statin pre-treatment during activation; settings: 5 μM during activation, DMSO negative control, n=3, FIG. 3A
Protocol: To test whether statins can improve CAR transduction efficiency or surface CAR stability, cells were pre-treated with 5 μM Rosuvastatin (Cayman Chemical, cat #12029) during the activation prior to the transduction. Then, activated primary NK cells were transduced with a Antigen-2 CAR at MOI of 5. Cells pre-treated with DMSO were included as a negative control.

primary NK cells [3] = experiment: Antigen-2 CAR expression of primary NK cells transduced after statin pre-treatment; settings: primary NK cells pre-treated with 5 μM, MOI of 5, FIG. 3B
Protocol: Lentiviral transduction was performed on day 5 or 6. NK cells were resuspended to determine if cell number had changed from day 0. Lentiviral particles were thawed on ice. Once thawed, lentiviral particles were taken out from ice and equilibrated to room temperature before being added to the activated NK cells. The amount of virus needed for transducing cells was determined based on desired multiplicity of infection (MOI). Once the NK cells were transduced with lentiviral particles, they were returned to the incubator at 37° C. and 5% CO2.
Cells were monitored as early as day 3-4 post transduction for surface CAR expression. The cell number of NK cells was determined. 1×10^5 NK cells were collected from each sample and transferred into wells of a microtiter plate. The cells in each well of the microtiter plate were washed twice with 200 μL FACS Buffer each time. The wells were stained with 100 μL staining buffer containing appropriate CAR detection antibodies. The plate was incubated for at least 30 minutes at 4° C. without light. The cells were then washed twice with 150 μL FACS Buffer each time and were centrifuged at 400×g for 4 minutes at room temperature. The CAR expression on NK cells was then measured using flow cytometry analysis. […]

| Compound | LDLR expression (LDLR) | frequency of Vγ9Vδ2 cells (primary γδ T cells) | surface CAR stability (primary NK cells [1]) | LDLR expression on the cells [2] | Antigen-2 CAR expression (primary NK cells [3]) |
| --- | --- | --- | --- | --- | --- |
| CC(C)c1c(C(=O)Nc2ccccc2)c(-c2ccccc2)c(-c2ccc(F)cc2)n1CC[C@@H](O)C[C@@H](O)CC(=O)O [Atorvastatin] | increased the LDLR expression | did not change the frequency of Vγ9Vδ2 cells |  |  |  |
| O=C(NCCCNc1nc(Nc2cccc(NC(=O)N3CCCC3)c2)ncc1I)c1cccs1 [BX795] |  |  | improved surface CAR stability in a dose dependent manner |  |  |
| CC(C)c1nc(N(C)S(C)(=O)=O)nc(-c2ccc(F)cc2)c1/C=C/[C@@H](O)C[C@@H](O)CC(=O)O [Rosuvastatin] | increased the LDLR expression | did not change the frequency of Vγ9Vδ2 cells |  | increased levels of LDLR expression | increased Antigen-2 CAR expression |
